Experimental data published in patent publication US10285979B2, “Breast cancer therapeutic agent containing 5′-hydroxy-5-nitro-indirubin-3′-oxime as active ingredient” (ANYGEN CO., LTD., priority 2016, dated 2019).
Like-named read-outs stand apart in the source and are kept apart here.

Tests used:
[1] = Description: Chemical name (IUPAC) of AGM-130 is (2′Z 3′E)-5′-hydroxy-5-nitro indirubin oxime. […] For the practical formulation of injectable aqueous solution, AGM-130 in PEG300 solution is diluted with 0.1 N Na2CO3 in saline solution to 70% aqueous solution with final concentration of 3.75 mg/mL.
[2] = test system: ER positive breast cancer cell lines; conditions: 3 types of ER positive breast cancer cell lines
CAKI-1 = conditions: 10 μM; renal cell carcinoma cell line CAKI-1
Description: (§1) If the growth percent is 0%, it means that no further growth of cancer cells occurs, which is an ideal case.

LOX IMVI = conditions: 10 μM; malignant melanoma cell line LOX IMVI
Description: as §1

SNB-19 = conditions: 10 μM; CNS cancer cell line SNB-19
Description: as §1

A549/ATCC = conditions: 10 μM; non-small cell lung cancer cell line A549/ATCC
Description: as §1

OVCAR-8 = conditions: 10 μM; ovarian cancer cell line OVCAR-8
Description: as §1

NCI-H226 = conditions: 10 μM; non-small cell lung cancer cell line NCI-H226
Description: as §1

ACHN = conditions: 10 μM; renal cell carcinoma cell line ACHN
Description: as §1

RPMI-8226 = conditions: 10 μM; leukemia cell line RPMI-8226
Description: as §1

HS 578T = conditions: 10 μM; breast cancer cell line HS 578T
Description: as §1

MDA-MB-435 = conditions: 10 μM; malignant melanoma cell line MDA-MB-435
Description: as §1

HOP-62 = conditions: 10 μM; non-small cell lung cancer cell line HOP-62
Description: as §1

HCC-2998 = conditions: 10 μM; colorectal cancer cell line HCC-2998
Description: as §1

HCT-15 = conditions: 10 μM; colorectal cancer cell line HCT-15
Description: as §1

HCT-116 = conditions: 10 μM; colorectal cancer cell line HCT-116
Description: as §1

SW-620 = conditions: 10 μM; colorectal cancer cell line SW-620
Description: as §1

NCI-H23 = conditions: 10 μM; non-small cell lung cancer cell line NCI-H23
Description: as §1

HL-60(TB) = conditions: 10 μM; leukemia cell line HL-60(TB)

O=C1Nc2ccc([N+](=O)[O-])cc2C1=C1Nc2ccc(O)cc2C1=NO [AGM-130, (2′Z 3′E)-5′-hydroxy-5-nitro indirubin oxime]
solubility ([1]; in DMF and DMSO): soluble
solubility ([1]; in ethanol and acetone): very difficult to dissolve
solubility ([1]; in water): practically insoluble
IC50 [2]: < 1 µM
Growth percent (CAKI-1): −14.28%
Growth percent (LOX IMVI): −32.44%
Growth percent (SNB-19): 17.47%
Growth percent (A549/ATCC): 10.64%
Growth percent (OVCAR-8): 7.71%
Growth percent (NCI-H226): −4.70%
Growth percent (ACHN): −25.79%
Growth percent (RPMI-8226): −7.92%
Growth percent (HS 578T): 1.21%
Growth percent (MDA-MB-435): 9.35%
Growth percent (HOP-62): −9.77%
Growth percent (HCC-2998): 8.93%
Growth percent (HCT-15): 10.28%
Growth percent (HCT-116): 2.29%
Growth percent (SW-620): 3.18%
Growth percent (NCI-H23): 3.19%
Growth percent (HL-60(TB)): 3.67%
